From ChEMBL document CHEMBL2440076, “New triarylpyrazoles as broad-spectrum anticancer agents: design, synthesis, and biological evaluation” (Eur J Med Chem, 2013)
pIC50: −log10 of the molar value.

Tests used:
HT-29 = test: Growth inhibition of human HT-29 cells assessed as cell growth at 10 uM after 48 hrs by sulforhodamine B assay; assay type: functional; details: HT-29, 48 h, read-out: Activity
786-0 = test: Growth inhibition of human 786-0 cells after 48 hrs by sulforhodamine B assay; assay type: functional; details: 786-0, 48 h
OVCAR-3 = test: Growth inhibition of human OVCAR3 cells assessed as cell growth at 10 uM after 48 hrs by sulforhodamine B assay; assay type: functional; details: OVCAR-3, 48 h, read-out: Activity
T47D = test: Growth inhibition of human T47D cells after 48 hrs by sulforhodamine B assay; assay type: functional
SK-MEL-2 = test: Growth inhibition of human SK-MEL-2 cells assessed as cell growth at 10 uM after 48 hrs by sulforhodamine B assay; assay type: functional; details: SK-MEL-2, 48 h, read-out: Activity
NCI-H522 [1] = test: Growth inhibition of human NCI-H522 cells assessed as cell growth at 10 uM after 48 hrs by sulforhodamine B assay; assay type: functional; details: NCI-H522, 48 h, read-out: Activity
COLO 205 = test: Growth inhibition of human COLO205 cells after 48 hrs by sulforhodamine B assay; assay type: functional; details: COLO 205, 48 h
NCI-H23 = test: Growth inhibition of human NCI-H23 cells assessed as cell growth at 10 uM after 48 hrs by sulforhodamine B assay; assay type: functional; details: NCI-H23, 48 h, read-out: Activity
SK-MEL-28 = test: Growth inhibition of human SK-MEL-28 cells after 48 hrs by sulforhodamine B assay; assay type: functional; details: SK-MEL-28, 48 h
OVCAR-8 [2] = test: Growth inhibition of human OVCAR8 cells assessed as cell growth at 10 uM after 48 hrs by sulforhodamine B assay; assay type: functional; details: OVCAR-8, 48 h, read-out: Activity
HCT-15 [3] = test: Growth inhibition of human HCT15 cells after 48 hrs by sulforhodamine B assay; assay type: functional; details: HCT-15, 48 h
SF-539 = test: Growth inhibition of human SF539 cells after 48 hrs by sulforhodamine B assay; assay type: functional; details: SF-539, 48 h
LOX IMVI = test: Growth inhibition of human LOXIMVI cells after 48 hrs by sulforhodamine B assay; assay type: functional
HOP-62 = test: Growth inhibition of human HOP62 cells after 48 hrs by sulforhodamine B assay; assay type: functional; details: HOP-62, 48 h
DU-145 = test: Growth inhibition of human DU145 cells after 48 hrs by sulforhodamine B assay; assay type: functional; details: DU-145, 48 h
M14 = test: Growth inhibition of human M14 cells assessed as cell growth at 10 uM after 48 hrs by sulforhodamine B assay; assay type: functional; details: M14, 48 h, read-out: Activity
KM12 = test: Growth inhibition of human KM12 cells assessed as cell growth at 10 uM after 48 hrs by sulforhodamine B assay; assay type: functional; details: KM12, 48 h, read-out: Activity
HL-60(TB) = test: Growth inhibition of human HL-60(TB) cells after 48 hrs by sulforhodamine B assay; assay type: functional; details: HL-60, 48 h
PC-3 = test: Growth inhibition of human PC3 cells assessed as cell growth at 10 uM after 48 hrs by sulforhodamine B assay; assay type: functional; details: PC-3, 48 h, read-out: Activity
NCI-H522 [4] = test: Growth inhibition of human NCI-H522 cells after 48 hrs by sulforhodamine B assay; assay type: functional; details: NCI-H522, 48 h
UO-31 = test: Growth inhibition of human UO31 cells assessed as cell growth at 10 uM after 48 hrs by sulforhodamine B assay; assay type: functional; details: UO-31, 48 h, read-out: Activity
BT-549 = test: Growth inhibition of human BT549 cells after 48 hrs by sulforhodamine B assay; assay type: functional; details: BT-549, 48 h
SW-620 = test: Growth inhibition of human SW620 cells assessed as cell growth at 10 uM after 48 hrs by sulforhodamine B assay; assay type: functional; details: SW-620, 48 h, read-out: Activity
K562 = test: Growth inhibition of human K562 cells after 48 hrs by sulforhodamine B assay; assay type: functional; details: K562, 48 h
MDA-MB-468 = test: Growth inhibition of human MDA-MB-468 cells assessed as cell growth at 10 uM after 48 hrs by sulforhodamine B assay; assay type: functional; details: MDA-MB-468, 48 h, read-out: Activity
CAKI-1 = test: Growth inhibition of human CAKI-1 cells after 48 hrs by sulforhodamine B assay; assay type: functional; details: CAKI-1, 48 h
MOLT-4 = test: Growth inhibition of human MOLT4 cells assessed as cell growth at 10 uM after 48 hrs by sulforhodamine B assay; assay type: functional; details: MOLT-4, 48 h, read-out: Activity
OVCAR-5 = test: Growth inhibition of human OVCAR5 cells assessed as cell growth at 10 uM after 48 hrs by sulforhodamine B assay; assay type: functional; details: OVCAR-5, 48 h, read-out: Activity
HCT-15 [5] = test: Growth inhibition of human HCT15 cells assessed as cell growth at 10 uM after 48 hrs by sulforhodamine B assay; assay type: functional; details: HCT-15, 48 h, read-out: Activity
RPMI-8226 = test: Growth inhibition of human RPMI8226 cells assessed as cell growth at 10 uM after 48 hrs by sulforhodamine B assay; assay type: functional; details: RPMI-8226, 48 h, read-out: Activity
NCI-H460 = test: Growth inhibition of human NCI-H460 cells after 48 hrs by sulforhodamine B assay; assay type: functional; details: NCI-H460, 48 h
SK-OV-3 = test: Growth inhibition of human SKOV3 cells after 48 hrs by sulforhodamine B assay; assay type: functional; details: SK-OV-3, 48 h
OVCAR-8 [6] = test: Growth inhibition of human OVCAR8 cells after 48 hrs by sulforhodamine B assay; assay type: functional; details: OVCAR-8, 48 h
HOP-92 = test: Growth inhibition of human HOP92 cells after 48 hrs by sulforhodamine B assay; assay type: functional, cell-based; details: HOP-92, 48 h
[7] = read-out: LC50 (the source's name)

Molecule `COc1cc(-c2nn(-c3cccc(NC(=O)Nc4ccc(Cl)c(C(F)(F)F)c4)c3)cc2-c2ccncc2)ccc1Cl` has a growth at 10 µM (HT-29) of -0.5%, a GI50 (786-0) of 1.61 µM and a TGI (786-0) of 8.02 µM. The CC50 (786-0; [7]) was > 32.5 µM, the growth at 10 µM (OVCAR-3) was -12.4% and the GI50 (T47D) was 1.23 µM. For the same molecule, the TGI (T47D) was > 32.5 µM, the CC50 (T47D; [7]) was > 32.5 µM and the growth at 10 µM (SK-MEL-2) was -57.8%. For the same molecule, the growth at 10 µM (NCI-H522 [1]) was -13.9%, the GI50 (COLO 205) was 0.711 µM and the LC50 (concentration killing 50% of cells) (COLO 205) was 3.48 µM. The TGI (COLO 205) was 1.54 µM, the growth at 10 µM (NCI-H23) was 5.69% and the GI50 (SK-MEL-28) was 1.2 µM. It also gave an LC50 (SK-MEL-28) of 19.1 µM, a TGI (SK-MEL-28) of 5.01 µM and a growth at 10 µM (OVCAR-8 [2]) of -19.9%. For the same molecule, the GI50 (HCT-15 [3]) was 1.23 µM, the LC50 (HCT-15 [3]) was > 32.5 µM and the TGI (HCT-15 [3]) was 7.05 µM. The GI50 (SF-539) was 1.65 µM, the LC50 (concentration killing 50% of cells) (SF-539) was 17.5 µM and the TGI (SF-539) was 6.34 µM. It also gave a GI50 (LOX IMVI) of 1.17 µM, an LC50 (LOX IMVI) of 17.9 µM and a TGI (LOX IMVI) of 4.61 µM. For the same molecule, the GI50 (HOP-62) was 1.31 µM, the TGI (HOP-62) was 6.49 µM and the CC50 (HOP-62; [7]) was 31 µM. For the same molecule, the GI50 (DU-145) was 1.5 µM, the LC50 (DU-145) was > 32.5 µM and the TGI (DU-145) was > 32.5 µM. The growth at 10 µM (M14) was -11.7%, the growth at 10 µM (KM12) was 2.88% and the GI50 (HL-60(TB)) was 1.17 µM. For the same molecule, the TGI (HL-60(TB)) was > 32.5 µM, the CC50 (HL-60(TB); [7]) was > 32.5 µM and the growth at 10 µM (PC-3) was -19.1%. The GI50 (NCI-H522 [4]) was 1.14 µM, the LC50 (concentration killing 50% of cells) (NCI-H522 [4]) was > 32.5 µM and the TGI (NCI-H522 [4]) was 6.06 µM. The growth at 10 µM (UO-31) was 11%, the GI50 (BT-549) was 2.36 µM and the LC50 (50% lethal concentration) (BT-549) was > 32.5 µM. The TGI (BT-549) was 10.2 µM, the growth at 10 µM (SW-620) was 15.4% and the GI50 (K562) was 1.21 µM. For the same molecule, the TGI (K562) was > 32.5 µM, the CC50 (K562; [7]) was > 32.5 µM and the growth at 10 µM (MDA-MB-468) was -7.22%. The GI50 (CAKI-1) was 0.992 µM, the TGI (CAKI-1) was 4.72 µM and the CC50 (CAKI-1; [7]) was > 32.5 µM. It also gave a growth at 10 µM (MOLT-4) of -2.38%, a growth at 10 µM (OVCAR-5) of 35.8% and a growth at 10 µM (HCT-15 [5]) of 9.91%. The growth at 10 µM (RPMI-8226) was -8.66%, the GI50 (NCI-H460) was 1.11 µM and the LC50 (NCI-H460) was > 32.5 µM. It also gave a TGI (NCI-H460) of 4.79 µM, a GI50 (SK-OV-3) of 1.45 µM and a TGI (SK-OV-3) of 13 µM. The CC50 (SK-OV-3; [7]) was > 32.5 µM, the GI50 (OVCAR-8 [6]) was 1.05 µM and the TGI (OVCAR-8 [6]) was 5.87 µM. The CC50 (OVCAR-8 [6]; [7]) was > 32.5 µM, the GI50 (HOP-92) was 0.499 µM and the pIC50 (HOP-92) was 6.30. For the same molecule, the LC50 (HOP-92) was > 32.5 µM and the TGI (HOP-92) was 1.48 µM.
